Values joined by “and” are separate entries in the source; they are usually repeats but may differ in a detail not shown here. Equal values may be shown once. Where a name gives a salt, the structure may show the parent alone.
Assays:
Assay type in all cases: cell-based, human
[1] = test system: ventral midbrain organoids; assay: CHIR dose curve (Wnt activation) for midbrain induction in ventral midbrain organoids (qPCR OTX2, FOXA2, TH)
Method: FIG. 2A-D: qPCR analysis of markers of ventral midbrain of the dose curving experiment to generate ventral midbrain organoids. Two separate dose curving experiments were performed, where first the correct dosage of sonic hedgehog activation was tested (FIG. 2A, floor plate marker FOXA2). Secondly, we performed qPCR to test for appropriate concentrations of posteriorization using Wnt activation. Dopaminergic neurons are born in the very ventral floor plate of the posterior midbrain, next to the midbrain-hindbrain boundary, thus the Forebrain and Midbrain marker OTX2 should still be expressed, whereas the hindbrain is OTX2 negative. We found a concentration of 0.8-1 μM sufficient to introduce midbrain (FIG. 2B), while the floor plate marker FOXA2 was still expressed (FIG. 2C). qPCR for the dopaminergic marker TH (Tyrosine hydroxylase, the rate-limiting enzyme for dopamine synthesis) confirmed this concentration of Wnt activation, with a sharp drop of TH expression starting at 1.2 μM CHIR (FIG. 2D).
All qPCR data are relative to the expression of TBP.
For each condition, 6-8 organoids were collected at indicated time points into 2 ml RNAse-free tubes. RNA was extracted using the Rneasy mini kit (Qiagen). […]
Quantification was performed in excel by calculating ΔCt relative to TBP. […]

[2] = test system: dopaminergic (TH+) axons in striatal and cortical tissue of fused organoids; assay: Chronic cocaine treatment of fused organoids: TH+ varicosity density and diameter; conditions: for density of TH+ varicosities on axons / diameter of TH+ varicosities: chronic 0.7 μM, vs control; for density of TH+ varicosities on axons: 1 h every 3 days, day 40-130; for diameter of TH+ varicosities: day 130
Method: A, Schematic for the treatment of fused organoids with cocaine. […] Functional, morphological and transcriptional analysis was performed on day 130. B, Representative images of dopaminergic (TH^+) axons in striatal and cortical tissue in control, chronic and withdrawal fused organoids. C, Schematic for the extraction of varicosity density and varicosity diameter in dopaminergic axons. D, Quantifications of TH^+ varicosity density in striatal and cortical tissue. N=6-8 organoids per condition, 39-49 axons. E, Measurement of varicosity diameter (axon average) in striatal and cortical tissue. N=6-8 organoids, 36-47 axons per condition and 1055|1552|1347 (striatal) and 923|1063|1340 (cortical) boutons measured. F, Schematic of the parameters' frequency and duration from GCAMP traces after extraction with CaImAn. G-H, fused organoids with GCAMP6S expression in either VM, striatal or cortical tissue were recorded on day 130 in control, chronic and withdrawal conditions (10-21 organoids per condition). […] 1776|2144|4254 individual calcium events (striatal) and 1437|6931|8000 individual calcium events (cortical). H, Analysis of calcium event frequency of striatal (n=248|245|680) and cortical (175|936|885) neurons in control, chronic and withdrawal conditions. I-J, Volcano plot comparing bulk RNAseq data of day 130 forebrain organoids chronic versus control (I) and withdrawal versus control (J) (n=6-9 organoids of 2-3 batches). […] Samples were analyzed with one-way ANOVA followed by unpaired Mann-Whitney test.
2Eci tissue clearing was performed as previously described (Masselink & Reumann, et al., Development 146, 2019). In brief, organoids were fixed with 4% formaldehyde in PBS for 4 h at RT. For 3D immunohistochemistry, PBS-TxDB was prepared: 10×PBS, 5% BSA and 2% TX100 were pre-mixed and filled up with distilled water to achieve approx. 70% of aimed volume (e.g. for 11 of PBS-TxDB, 100 ml of 10×PBS, 50 g BSA and 20 ml TX100 were used and filled up to 700 ml with distilled water. 20% DMSO was then added slowly under heavy stirring-rapid addition of DMSO may result in irreversible BSA aggregation. The solution was filled up to 100% with distilled water and sterile filtered. PBS-TxDB is stable at RT for at least several weeks, or at 4° C. for up to a year.
Organoids were blotted/permeabilized on a rotor or shaking plate for 1-2 days in 10 ml PBS-TxDB at RT. Organoids (dependent on the size, between 3 and 6) were then transferred into 2 ml Eppendorf tubes containing primary antibody solution in PBS-TxDB (between 500 μl to 1 ml) and transferred to a rotor or shaking plate for 5 days. Organoids were then washed in 10 ml PBS-TxDB for 2 days (1× rinse, 3×PBS-TxDB exchange) and the same steps were repeated for secondaries. After washing off the residual secondaries, organoids were washed in PBS for 1 h and then fixed in 4% Formaldehyde solution for 30 min-2 h. Organoids were then ready to be dehydrated in a 1-Propanol gradient (30%, 50%, 70%, 100%, 100%, 4-8 h per step). As no endogenous fluorescence had to be maintained, pH adjustment of the 1-Propanol was skipped. After dehydration, organoids were transferred into Ethyl Cinnamate and were ready for imaging as soon as completely transparent (1-3 h or overnight at RT). Cleared organoids were stored at room temperature and should not be transferred to 4° C., as Ethyl Cinnamate crystallizes out at lower temperatures. […]

[3] = test system: VM, striatal and cortical neurons of fused organoids; assay: Chronic cocaine treatment of fused organoids: GCAMP6S calcium imaging; conditions: for calcium event frequency: VM, striatal and cortical patterned neurons
Method: (§1) A, Schematic for the treatment of fused organoids with cocaine. […] Functional, morphological and transcriptional analysis was performed on day 130. B, Representative images of dopaminergic (TH^+) axons in striatal and cortical tissue in control, chronic and withdrawal fused organoids. C, Schematic for the extraction of varicosity density and varicosity diameter in dopaminergic axons. D, Quantifications of TH^+ varicosity density in striatal and cortical tissue. N=6-8 organoids per condition, 39-49 axons. E, Measurement of varicosity diameter (axon average) in striatal and cortical tissue. N=6-8 organoids, 36-47 axons per condition and 1055|1552|1347 (striatal) and 923|1063|1340 (cortical) boutons measured. F, Schematic of the parameters' frequency and duration from GCAMP traces after extraction with CaImAn. G-H, fused organoids with GCAMP6S expression in either VM, striatal or cortical tissue were recorded on day 130 in control, chronic and withdrawal conditions (10-21 organoids per condition). […] H, Analysis of calcium event frequency of striatal (n=248|245|680) and cortical (175|936|885) neurons in control, chronic and withdrawal conditions. I-J, Volcano plot comparing bulk RNAseq data of day 130 forebrain organoids chronic versus control (I) and withdrawal versus control (J) (n=6-9 organoids of 2-3 batches). […] Samples were analyzed with one-way ANOVA followed by unpaired Mann-Whitney test.
(§2) A, Representative 130 day old GCAMP recordings of fused organoids with Syn-GCAMP expression either in the cortical, or striatal, or VM tissue in control (left), chronic (middle) and withdrawal (right) condition. […] D, Analysis of calcium event frequency of VM (n=100|278|115) neurons in control, chronic and withdrawal conditions. […] Samples were analyzed with one-way ANOVA followed by unpaired Mann-Whitney test (C, D). E-F, Volcano plots of differentially expressed genes in VM tissue in chronic versus control I and withdrawal versus control (F). G-I, GSEA analysis of three GO terms associated with neural circuit formation (Dendrite Development, Axon Development and Synapse Organization) in forebrain chronic vs control (top) and forebrain withdrawal versus control (bottom).
Organoids were grown until […]. GCAMP was recorded using an Olympus Spinning Disk (see Microscopy section). In brief, 20× magnification and an exposure time of 65 ms per frame (continuous recording) were used for up to 6.5 min of continuous recording. For trace extraction, recordings were scaled down from 2048×2048 to 512×512 pixels. Trace extraction was performed using the opensource software package CaImAn (Flatiron Institute).
(§3) Here, we used the neural multi-tissue organoids to test the effects of cocaine on the establishment of the dopaminergic system. Cocaine is a dopamine reuptake inhibitor, which binds to the dopamine transporter (DAT) and inhibits the reuptake of dopamine after release and thus increases the available levels of dopamine to target cells. While the effects of cocaine on the adult brain are relatively well understood, not much is known about the effects of cocaine on the development of the CNS-predominantly because of the lack of an effective model system. We tested the effects of chronic cocaine exposure and its potential effect on the establishment of the dopaminergic system. […] We chronically treated fused organoids with cocaine from day 40 until day 130 and generated a withdrawal condition which was not exposed to cocaine from day 105 onwards (FIG. 17A).
In vivo, cocaine exposure has been associated with changes in neural activity.

[4] = test system: forebrain and VM tissue of fused organoids; assay: Chronic cocaine treatment of fused organoids: bulk RNAseq; conditions: for transcriptional change (bulk RNAseq): day 130
Method: as §1, §2, §3

Q: Which “concentration sufficient for midbrain induction” value ([1]; OTX2, FOXA2 and TH still expressed (qPCR)) does the source give for Cc1cnc(-c2cnc(NCCNc3ccc(C#N)cn3)nc2-c2ccc(Cl)cc2Cl)[nH]1 [CHIR, 6-[[2-[[4-(2,4-dichlorophenyl)-5-(5-methyl-1H-imidazol-2-yl)-2-pyrimidinyl]amino]ethyl]amino]-3-pyridinecarbonitrile] here?
A: Its value is 0.8 to 1 µM and 1 µM.

Q: And the “concentration at which sharp drop of TH expression starts” value ([1]; qPCR, relative to TBP)?
A: Its value is ≥ 1.2 µM.

Q: How did the “diameter of TH+ varicosities, rescue by withdrawal” value ([2]; 25-day long withdrawal, striatal and cortical tissue) turn out when COC(=O)[C@H]1[C@@H](OC(=O)c2ccccc2)C[C@@H]2CC[C@H]1N2C [cocaine hydrochloride] was run?
A: Its value is “failed to rescue”.

Q: And the “density of TH+ varicosities on axons” value ([2]; cortical tissue)?
A: Its value is “significantly increased”.

Q: And the “diameter of TH+ varicosities” value ([2]; cortical tissue)?
A: Its value is “significantly reduced”.

Q: What about the “density of TH+ varicosities on axons” value ([2]; striatal tissue) of the same compound?
A: Its value is “significantly increased”.

Q: What about the “diameter of TH+ varicosities” value ([2]; striatal tissue) of the same compound?
A: Its value is “significantly reduced”.

Q: What about the calcium event duration ([3]; VM neurons, chronic condition, day 130) of the same compound?
A: Its calcium event duration is “decrease”.

Q: And the calcium event duration ([3]; VM neurons, cocaine withdrawal)?
A: The calcium event duration was “without recovery”.

Q: What about the calcium event frequency ([3]; cocaine treated vs control) of the same compound?
A: The calcium event frequency was “fewer events per minute”.

Q: And the calcium event frequency ([3]; withdrawal condition)?
A: The calcium event frequency was “only partially recover”.

Q: And the calcium event duration ([3]; cortical patterned neurons, chronic condition, day 130, vs control, hydrochloride)?
A: The calcium event duration was “increase”.

Q: What about the calcium event duration ([3]; cortical patterned neurons, chronic condition, day 130, vs control, listed as cocaine, hydrochloride) of the same compound?
A: Its calcium event duration is “significant increase”.

Q: What about the calcium event duration ([3]; striatal neurons, chronic condition, day 130, vs control, hydrochloride) of the same compound?
A: The calcium event duration was “significant decrease”.

Q: What about the calcium event duration ([3]; striatal neurons, chronic condition, day 130, vs control, listed as cocaine, hydrochloride) of the same compound?
A: The calcium event duration was “significantly shorter”.

Q: And the calcium event duration ([3]; withdrawal condition, striatal and cortical neurons)?
A: The calcium event duration was “not significantly different from the chronic condition”.

Q: And the “transcriptional change (bulk RNAseq)” value ([4]; VM tissue, chronic and withdrawal vs control)?
A: Its value is “only little transcriptional change”.

Q: And the “genes associated with interferon response (such as IFITM2 and IFITM3)” value ([4]; forebrain, chronic and withdrawal conditions)?
A: Its value is “upregulated”.

Q: And the “transcriptional change (bulk RNAseq)” value ([4]; forebrain, chronic and withdrawal conditions vs control)?
A: The value was “a broad list of genes was differentially expressed”.

Q: And the “genes associated with neural circuit formation (GO term analysis)” value ([4]; forebrain, chronic and withdrawal vs control)?
A: Its value is “downregulation”.

Q: And the “GSEA of GO terms dendrite development, axon development and synapse organization” value ([4]; forebrain, chronic exposure and withdrawal vs control)?
A: The value was “consistently and significantly downregulated”.
